Results from ChEMBL document CHEMBL3045838, “Synthesis, antimicrobial and antioxidant activities of 2-[1-{3,5-diaryl-4,5-dihydro-1H-pyrazolenyl}]-4-(4-nitrophenyl)-[1,3]-thiazoles” (2013).
Converted amounts (≈) assume the structure as drawn.

Assays:
Assay type in all cases: functional
[1] = system: Escherichia coli; assay: Antibacterial activity against Escherichia coli ATCC 25922 assessed as growth inhibition at 1.56 to 25 ug/mL
[2] = system: Escherichia coli; assay: microbe, parasite or virus in culture; conditions: ATCC 25922
Description: Antibacterial activity against Escherichia coli ATCC 25922 assessed as growth inhibition by serial plate dilution method

[3] = system: Staphylococcus aureus; assay: Antibacterial activity against Staphylococcus aureus ATCC 25923 assessed as growth inhibition at 1.56 to 25 ug/mL
[4] = system: Staphylococcus aureus; assay: Antibacterial activity against Staphylococcus aureus ATCC 25923 assessed as growth inhibition by serial plate dilution method
[5] = system: Radical scavenging activity; assay: Antioxidant activity assessed as inhibition of DPPH radical generation at 4000 ug/mL after 15 min by UV-Vis spectrophotometric analysis relative to control; conditions: at 4000 µg/mL
[6] = system: Aspergillus fumigatus; assay: Antifungal activity against Aspergillus fumigatus NCIM 902 assessed as growth inhibition at 1.56 to 25 ug/mL
[7] = system: Aspergillus fumigatus; assay: Antifungal activity against Aspergillus fumigatus NCIM 902 assessed as growth inhibition by serial plate dilution method
[8] = system: Aspergillus flavus; assay: Antifungal activity against Aspergillus flavus NCIM 524 assessed as growth inhibition at 1.56 to 25 ug/mL
[9] = system: Aspergillus flavus; assay: Antifungal activity against Aspergillus flavus NCIM 524 assessed as growth inhibition by serial plate dilution method
[10] = system: Trichophyton mentagrophytes; assay: Antifungal activity against Trichophyton mentagrophytes assessed as growth inhibition at 1.56 to 25 ug/mL
[11] = system: Trichophyton mentagrophytes; assay: Antifungal activity against Trichophyton mentagrophytes assessed as growth inhibition by serial plate dilution method
[12] = system: Talaromyces marneffei; assay: Antifungal activity against Talaromyces marneffei assessed as growth inhibition at 1.56 to 25 ug/mL
[13] = system: Talaromyces marneffei; assay: Antifungal activity against Talaromyces marneffei assessed as growth inhibition by serial plate dilution method
[14] = system: Klebsiella pneumoniae; assay: Antibacterial activity against Klebsiella pneumoniae assessed as growth inhibition by serial plate dilution method
[15] = system: Klebsiella pneumoniae; assay: Antibacterial activity against Klebsiella pneumoniae assessed as growth inhibition at 1.56 to 25 ug/mL
[16] = system: Pseudomonas aeruginosa; assay: Antibacterial activity against Pseudomonas aeruginosa ATCC 27853 assessed as growth inhibition at 1.56 to 25 ug/mL
[17] = system: Pseudomonas aeruginosa; assay: Antibacterial activity against Pseudomonas aeruginosa ATCC 27853 assessed as growth inhibition by serial plate dilution method

SMILES: COc1ccc(C2=NN(c3nc(-c4ccc([N+](=O)[O-])cc4)cs3)C(c3ccc(-c4ccc([N+](=O)[O-])cc4C)o3)C2)cc1OC (centres undefined)
- diameter of the inhibition zone (DIZ) [1]: 16 mm
- MIC [2]: 6.25 µg/mL (≈ 10.2 µM)
- diameter of the inhibition zone (DIZ) [3]: 16 mm
- MIC [4]: 6.25 µg/mL (≈ 10.2 µM)
- inhibition [5]: 14%
- diameter of the inhibition zone (DIZ) [6]: 16 mm
- MIC [7]: 6.25 µg/mL (≈ 10.2 µM)
- diameter of the inhibition zone (DIZ) [8]: 16 mm
- MIC [9]: 6.25 µg/mL (≈ 10.2 µM)
- diameter of the inhibition zone (DIZ) [10]: 16 mm
- MIC [11]: 6.25 µg/mL (≈ 10.2 µM)
- diameter of the inhibition zone (DIZ) [12]: 16 mm
- MIC [13]: 6.25 µg/mL (≈ 10.2 µM)
- MIC [14]: 6.25 µg/mL (≈ 10.2 µM)
- diameter of the inhibition zone (DIZ) [15]: 16 mm
- diameter of the inhibition zone (DIZ) [16]: 16 mm
- MIC [17]: 6.25 µg/mL (≈ 10.2 µM)

SMILES: CSc1ccc(C2CC(c3ccc(Cl)cc3Cl)=NN2c2nc(-c3ccc([N+](=O)[O-])cc3)cs2)cc1 (centres undefined)
- diameter of the inhibition zone (DIZ) [1]: 16 mm
- MIC [2]: 6.25 µg/mL (≈ 11.5 µM)
- diameter of the inhibition zone (DIZ) [3]: 16 mm
- MIC [4]: 6.25 µg/mL (≈ 11.5 µM)
- inhibition [5]: 88%
- diameter of the inhibition zone (DIZ) [6]: 16 mm
- MIC [7]: 6.25 µg/mL (≈ 11.5 µM)
- diameter of the inhibition zone (DIZ) [8]: 16 mm
- MIC [9]: 6.25 µg/mL (≈ 11.5 µM)
- diameter of the inhibition zone (DIZ) [10]: 16 mm
- MIC [11]: 6.25 µg/mL (≈ 11.5 µM)
- diameter of the inhibition zone (DIZ) [12]: 16 mm
- MIC [13]: 6.25 µg/mL (≈ 11.5 µM)
- MIC [14]: 6.25 µg/mL (≈ 11.5 µM)
- diameter of the inhibition zone (DIZ) [15]: 16 mm
- diameter of the inhibition zone (DIZ) [16]: 16 mm
- MIC [17]: 6.25 µg/mL (≈ 11.5 µM)

SMILES: O=[N+]([O-])c1ccc(-c2csc(N3N=C(c4ccccc4)CC3c3ccc(-c4ccc(Cl)cc4)o3)n2)cc1 (centres undefined)
- diameter of the inhibition zone (DIZ) [1]: 11 mm
- MIC [2]: 12.5 µg/mL (≈ 23.7 µM)
- diameter of the inhibition zone (DIZ) [3]: 11 mm
- MIC [4]: 12.5 µg/mL (≈ 23.7 µM)
- inhibition [5]: 45%
- diameter of the inhibition zone (DIZ) [6]: 11 mm
- MIC [7]: 12.5 µg/mL (≈ 23.7 µM)
- diameter of the inhibition zone (DIZ) [8]: 11 mm
- MIC [9]: 12.5 µg/mL (≈ 23.7 µM)
- diameter of the inhibition zone (DIZ) [10]: 11 mm
- MIC [11]: 12.5 µg/mL (≈ 23.7 µM)
- diameter of the inhibition zone (DIZ) [12]: 11 mm
- MIC [13]: 12.5 µg/mL (≈ 23.7 µM)
- MIC [14]: 12.5 µg/mL (≈ 23.7 µM)
- diameter of the inhibition zone (DIZ) [15]: 11 mm
- diameter of the inhibition zone (DIZ) [16]: 11 mm
- MIC [17]: 12.5 µg/mL (≈ 23.7 µM)

SMILES: COc1ccc(C2=NN(c3nc(-c4ccc([N+](=O)[O-])cc4)cs3)C(c3ccc(-c4ccc(Cl)cc4[N+](=O)[O-])o3)C2)cc1OC (centres undefined)
- diameter of the inhibition zone (DIZ) [1]: 11 mm
- MIC [2]: 12.5 µg/mL (≈ 19.8 µM)
- diameter of the inhibition zone (DIZ) [3]: 11 mm
- MIC [4]: 12.5 µg/mL (≈ 19.8 µM)
- inhibition [5]: 82%
- diameter of the inhibition zone (DIZ) [6]: 11 mm
- MIC [7]: 12.5 µg/mL (≈ 19.8 µM)
- diameter of the inhibition zone (DIZ) [8]: 11 mm
- MIC [9]: 12.5 µg/mL (≈ 19.8 µM)
- diameter of the inhibition zone (DIZ) [10]: 11 mm
- MIC [11]: 12.5 µg/mL (≈ 19.8 µM)
- diameter of the inhibition zone (DIZ) [12]: 11 mm
- MIC [13]: 12.5 µg/mL (≈ 19.8 µM)
- MIC [14]: 12.5 µg/mL (≈ 19.8 µM)
- diameter of the inhibition zone (DIZ) [15]: 11 mm
- diameter of the inhibition zone (DIZ) [16]: 11 mm
- MIC [17]: 12.5 µg/mL (≈ 19.8 µM)

SMILES: CSc1ccc(C2CC(c3ccc(Cl)cc3)=NN2c2nc(-c3ccc([N+](=O)[O-])cc3)cs2)cc1 (centres undefined)
- diameter of the inhibition zone (DIZ) [1]: 16 mm
- MIC [2]: 6.25 µg/mL (≈ 12.3 µM)
- diameter of the inhibition zone (DIZ) [3]: 16 mm
- MIC [4]: 6.25 µg/mL (≈ 12.3 µM)
- inhibition [5]: 38%
- diameter of the inhibition zone (DIZ) [6]: 16 mm
- MIC [7]: 6.25 µg/mL (≈ 12.3 µM)
- diameter of the inhibition zone (DIZ) [8]: 16 mm
- MIC [9]: 6.25 µg/mL (≈ 12.3 µM)
- diameter of the inhibition zone (DIZ) [10]: 16 mm
- MIC [11]: 6.25 µg/mL (≈ 12.3 µM)
- diameter of the inhibition zone (DIZ) [12]: 16 mm
- MIC [13]: 6.25 µg/mL (≈ 12.3 µM)
- MIC [14]: 6.25 µg/mL (≈ 12.3 µM)
- diameter of the inhibition zone (DIZ) [15]: 16 mm
- diameter of the inhibition zone (DIZ) [16]: 16 mm
- MIC [17]: 6.25 µg/mL (≈ 12.3 µM)

SMILES: COc1ccc(C2=NN(c3nc(-c4ccc([N+](=O)[O-])cc4)cs3)C(c3ccc(-c4ccc(Cl)cc4Cl)o3)C2)cc1OC (centres undefined)
- diameter of the inhibition zone (DIZ) [1]: 16 mm
- MIC [2]: 6.25 µg/mL (≈ 10.1 µM)
- diameter of the inhibition zone (DIZ) [3]: 16 mm
- MIC [4]: 6.25 µg/mL (≈ 10.1 µM)
- inhibition [5]: 86%
- diameter of the inhibition zone (DIZ) [6]: 16 mm
- MIC [7]: 6.25 µg/mL (≈ 10.1 µM)
- diameter of the inhibition zone (DIZ) [8]: 16 mm
- MIC [9]: 6.25 µg/mL (≈ 10.1 µM)
- diameter of the inhibition zone (DIZ) [10]: 16 mm
- MIC [11]: 6.25 µg/mL (≈ 10.1 µM)
- diameter of the inhibition zone (DIZ) [12]: 16 mm
- MIC [13]: 6.25 µg/mL (≈ 10.1 µM)
- MIC [14]: 6.25 µg/mL (≈ 10.1 µM)
- diameter of the inhibition zone (DIZ) [15]: 16 mm
- diameter of the inhibition zone (DIZ) [16]: 16 mm
- MIC [17]: 6.25 µg/mL (≈ 10.1 µM)

SMILES: COc1ccc(-c2ccc(C3CC(c4ccc(OC)c(OC)c4)=NN3c3nc(-c4ccc([N+](=O)[O-])cc4)cs3)o2)c([N+](=O)[O-])c1 (centres undefined)
- diameter of the inhibition zone (DIZ) [1]: 11 mm
- MIC [2]: 12.5 µg/mL (≈ 19.9 µM)
- diameter of the inhibition zone (DIZ) [3]: 11 mm
- MIC [4]: 12.5 µg/mL (≈ 19.9 µM)
- inhibition [5]: 86%
- diameter of the inhibition zone (DIZ) [6]: 11 mm
- MIC [7]: 12.5 µg/mL (≈ 19.9 µM)
- diameter of the inhibition zone (DIZ) [8]: 11 mm
- MIC [9]: 12.5 µg/mL (≈ 19.9 µM)
- diameter of the inhibition zone (DIZ) [10]: 11 mm
- MIC [11]: 12.5 µg/mL (≈ 19.9 µM)
- diameter of the inhibition zone (DIZ) [12]: 11 mm
- MIC [13]: 12.5 µg/mL (≈ 19.9 µM)
- MIC [14]: 12.5 µg/mL (≈ 19.9 µM)
- diameter of the inhibition zone (DIZ) [15]: 11 mm
- diameter of the inhibition zone (DIZ) [16]: 11 mm
- MIC [17]: 12.5 µg/mL (≈ 19.9 µM)
